Measurements taken from BindingDB's records for patent US20240018122 (Chiesi Farmaceutici, 2024).

What follows are compounds tested against T1, TGF-beta receptor type-1 (Homo sapiens, UniProt P36897) (assay: In vitro Assay).
T1 sequence (P36897 whole entry): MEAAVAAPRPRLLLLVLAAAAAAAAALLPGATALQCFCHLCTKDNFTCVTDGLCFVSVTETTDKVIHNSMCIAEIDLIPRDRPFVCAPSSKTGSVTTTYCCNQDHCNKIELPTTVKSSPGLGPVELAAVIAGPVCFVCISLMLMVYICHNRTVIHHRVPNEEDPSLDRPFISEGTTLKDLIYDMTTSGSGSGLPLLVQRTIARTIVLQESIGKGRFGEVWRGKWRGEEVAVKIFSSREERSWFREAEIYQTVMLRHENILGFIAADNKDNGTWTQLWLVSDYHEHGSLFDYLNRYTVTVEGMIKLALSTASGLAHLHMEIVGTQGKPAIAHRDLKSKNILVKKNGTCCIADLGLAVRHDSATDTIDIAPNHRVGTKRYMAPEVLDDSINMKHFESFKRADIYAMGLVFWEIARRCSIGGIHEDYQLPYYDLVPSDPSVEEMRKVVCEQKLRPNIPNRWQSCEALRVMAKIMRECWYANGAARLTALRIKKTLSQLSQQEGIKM
Description: The enzymatic activity of compounds of the present invention was monitored measuring the formation of ADP using the ADP-GLO Kinases assay. Following the incubation of the purified enzyme, a substrate and ATP, the produced ADP was converted into ATP, which in turn was converted into light by Ultra-Glo Luciferase. The luminescent signal positively correlated with ADP amount and kinase activity.

| IC50 [nM] | SMILES |
| --- | --- |
| < 1 | Cc1nnc(-c2cc(Cl)ccc2F)cc1Nc1ccnc(NC(=O)CCN2CCN(CCS(C)(=O)=O)CC2)c1 [US20240018122, Example 83] |
| < 1 | OCCC(CCO)N1CCN(CCOc2ccc3c(Nc4cnnc(-c5cc(Cl)ccc5F)c4)ccnc3c2)CC1 [US20240018122, Example 86] |
| < 1 | Cc1nnc(-c2cc(Cl)ccc2F)cc1Nc1ccnc(NC(=O)CCN2CC[N+](C)(C)CC2)c1 [US20240018122, Example 110] |
| < 1 | CN1CCN(CCN(C)C(=O)c2cc3c(Nc4cnnc(-c5cc(Cl)ccc5F)c4)ccnc3[nH]2)CC1 [US20240018122, Example 40] |
| < 1 | Cc1nnc(-c2cc(Cl)ccc2F)cc1Nc1ccnc(NC(=O)NCC2CCN(C)CC2)c1 [US20240018122, Example 142] |
| < 1 | Cc1nnc(-c2cc(Cl)ccc2F)cc1Nc1ccnc(NC(=O)C2CC2)c1 [US20240018122, Example 15] |

| SMILES | IC50 [nM] |
| --- | --- |
| Cc1nnc(-c2cc(Cl)ccc2F)cc1Nc1ccnc(NC(=O)CCN2CCNC(C(=O)O)C2)c1 (configuration not stated) [US20240018122, Example 92] | < 1 |
